Results: PMC5700813, “A recombinant BBSome core complex and how it interacts with ciliary cargo” (eLife, 2017)
“Also recorded” adds a separate entry of the source. Where two headings read alike, the source gives them in different places. Ends that are not written are not given here. Peptide text beside a SMILES is read from it.

Assays:
[1] = biological target: T1, core BBSome (BBS1,4,5,8,9,18); experiment: Fluorescence polarization binding of fluorescently labeled peptides to the core BBSome; design: species or system human; conditions: for Kd: N-terminally fluorescein-labeled peptide 0.1–1 µM titrated with purified core BBSome, fitted to binding curve
T1 construct: His-tag; made in house; host or cells: Hi5 insect cells (baculovirus)
Source text: Our microarray data indicated multiple closely spaced binding epitopes in several cases. Where possible, we combined those epitopes into a single fluorescent peptide with up to 37 residues length to more fully reflect the binding site/motif. […] Cargo binding to the core BBSome with fluorescence polarization, measured by using fluorescently labeled peptides and the purified core BBSome. […] All peptides were N-terminally labeled with fluorescein, with an exception of a C-terminally TMR-labeled SSTR3 CT1 peptide (orange squares) that was used as a control to exclude nonspecific binding events due to the used fluorophore. […] (Data points exceeding this mark might indicate secondary binding events at high BBSome concentrations). (C) Fluorescent peptides from the C-terminus of Smo (Smo CT1-4) and a truncated Smoothened construct (Smo […]-[…]) were analyzed as described above. (D) The peptide SSTR3 CT2 that bound with highest affinity to the core BBSome was used as a template for the design and analysis of mutant peptides (SSTR3 CT3-9) with substitutions of one or multiple residues as indicated. Polarization experiments were performed as described above and dissociation constants (KD) are presented as ratios to the KD of the wild type peptide as a bar diagram. (E) Bar diagram of the relative affinities of SmoCT1 and CT3 relative to SmoCT4, as determined in C, and of mutant Smo CT4 peptides with substitutions as indicated. […] Cargo binding to the core BBSome. […] Core BBSome was added at the indicated concentrations and the increase in fluorescence polarization was monitored as a measure for the peptides binding to the protein complex. […] Mutational analysis of the BBSome binding peptides. […] The peptides SSTR3 CT2 (A) and of Smo CT4 (B) that bound with highest affinity to the core BBSome were used as templates for the design of mutant peptides with one or multiple aromatic/basic residue motifs changed to alanines as summarized in Table 1. Core BBSome was added at the indicated concentrations and the increase in fluorescence polarization was monitored as a measure for the peptides binding to the protein complex. […] Fluorescently labeled peptides were purchased from Proteogenix (Proteogenix SAS, France). Fluorescein-labels are located N-terminally to the peptide sequence and TAMRA at the C-terminal side. Fluorescence polarization experiments were performed using a Fluoromax-4 spectrophotometer (HORIBA Jobin Yvon, Germany) or a Safire two multimode plate reader (Tecan, Switzerland). Fluoresceine-labeled samples were measured with excitation/emission wavelengths of λEx = 490 nm and λEm = 520 nm with a bandwidth of 7 nm on the Fluoromax-4. […] Sample volumes were 20 μl in a 1,5 × 1,5 mm cuvette (Hellma Analytics, Germany) for the Fluoromax-4 and 4.5 μl in a 384 well low-binding plate (Corning, Germany). Data analysis was done with the Origin 9.0 program suite (Originlab, Northampton, MA). The polarization curves were fit against the function FI = Fmin […] Fmax corresponding to the fluorescence polarization signal and the signal of unbound and completely saturated fluorescent molecule E with interaction partner L, respectively. The concentrations of molecule E are indicated in the corresponding figure legends, and the calculated dissociation constants KD are listed in Table 1.

core BBSome = experiment: Pulldown of core BBSome with immobilized bait on Streptactin beads; type: binding, human; conditions: 7.5 fold molar excess of bait immobilized to Streptactin-coupled Sepharose beads
Source text: From previous data, BBS1 seems to be the BBSome subunit most relevant for cargo recognition and Arl6 binding. We first tested the binding of Arl6 to the BBSome core complex. […] To test whether the core BBSome can recognize known BBSome cargo proteins, we generated a truncated (residues R546-L665) version of the Smo receptor, which contains a ciliary targeting motif predicted to interact with the BBSome ([Zhang et al., 2012a]; [Seo et al., 2011]; [Corbit et al., 2005]). In pulldown experiments as described above (Figure 3), the binding was clearly detectable, but considerably weaker than that of Arl6•GppNHp. In fluorescence polarization experiments (see below), we determined the affinity for a fluoresceine-labeled version of this Smo fragment to be 36.1 ± 3.9 µM.
Figure 3. Pulldown of core BBSome with immobilized Arl6 and Smoothened domain R546-L665. Purified core BBSome samples were pulled down by a 7.5 fold molar excess of Arl6•GDP, Arl6•GppNHp or Smo(R546-L665) immobilized to Streptactin-coupled Sepharose beads. […] Smo(R546-L665) bound weaker, but still captured >2% of the BBSome sample. This was approximated by a comparison of the 1:50 diluted Arl6•GppNHp elution with the undiluted Smo(R546-L665) elution in a Flag-blot against Flag-BBS8 from the BBSome core complex.
Pulldown assays were performed using 20 µl Strep-Tactin Superflow high capacity resin (IBA, Germany) per assay equilibrated with pulldown buffer (50 mM Hepes pH 8.0, 150 mM NaCl, 5 mM MgCl2, 5 mM ß-ME and 0.05% DDM). Smo(R546-L665, N-terminal Strep-tag) and Arl6 (residues 17–186, Q73L, C-terminal Strep-tag, with the nucleotide exchanged to either GDP or GppNHp) was immobilized as the bait, and the 6mer BBSome core complex served as the prey (The dual-Strep-tag on BBS18 within the complex was completely removed by Prescission protease cleavage for this experiment). 35 µg of the bait proteins were incubated with the beads in 1 ml pulldown buffer at 4°C for 1 hr, and the unbound protein was washed away with 3 × 1 ml pulldown buffer. […]

T1 sequence (Q8NFJ9 whole entry, stated change not applied): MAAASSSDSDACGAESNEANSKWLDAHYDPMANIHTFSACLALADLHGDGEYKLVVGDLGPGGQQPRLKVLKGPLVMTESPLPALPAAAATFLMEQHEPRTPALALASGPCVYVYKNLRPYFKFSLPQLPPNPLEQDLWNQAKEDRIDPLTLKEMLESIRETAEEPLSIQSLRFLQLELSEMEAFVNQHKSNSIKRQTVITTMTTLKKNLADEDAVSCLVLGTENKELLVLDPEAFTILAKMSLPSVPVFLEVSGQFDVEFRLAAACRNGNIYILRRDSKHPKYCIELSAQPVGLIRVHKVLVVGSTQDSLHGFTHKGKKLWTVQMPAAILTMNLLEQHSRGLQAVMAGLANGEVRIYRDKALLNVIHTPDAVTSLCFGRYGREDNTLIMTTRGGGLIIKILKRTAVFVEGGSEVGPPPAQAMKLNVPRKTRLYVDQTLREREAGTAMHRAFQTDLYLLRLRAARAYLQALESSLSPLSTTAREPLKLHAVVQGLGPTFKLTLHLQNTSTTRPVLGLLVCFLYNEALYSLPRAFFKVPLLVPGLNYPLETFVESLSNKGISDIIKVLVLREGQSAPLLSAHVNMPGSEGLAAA
T1 sequence (Q96RK4 whole entry, stated change not applied, further chain): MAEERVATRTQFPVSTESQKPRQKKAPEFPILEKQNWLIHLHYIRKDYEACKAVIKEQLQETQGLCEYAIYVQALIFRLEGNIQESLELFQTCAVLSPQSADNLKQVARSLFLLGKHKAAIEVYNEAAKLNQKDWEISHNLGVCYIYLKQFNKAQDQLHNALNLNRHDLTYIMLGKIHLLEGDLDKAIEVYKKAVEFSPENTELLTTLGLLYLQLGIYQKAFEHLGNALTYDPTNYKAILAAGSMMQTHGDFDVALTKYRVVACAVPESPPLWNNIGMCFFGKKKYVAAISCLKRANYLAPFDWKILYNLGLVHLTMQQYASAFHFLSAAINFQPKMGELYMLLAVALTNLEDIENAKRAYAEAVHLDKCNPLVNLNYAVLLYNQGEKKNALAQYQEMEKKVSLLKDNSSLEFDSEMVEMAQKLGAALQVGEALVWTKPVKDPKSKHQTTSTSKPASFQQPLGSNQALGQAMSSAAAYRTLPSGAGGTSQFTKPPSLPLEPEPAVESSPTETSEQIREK
T1 sequence (Q8N3I7 whole entry, stated change not applied, further chain): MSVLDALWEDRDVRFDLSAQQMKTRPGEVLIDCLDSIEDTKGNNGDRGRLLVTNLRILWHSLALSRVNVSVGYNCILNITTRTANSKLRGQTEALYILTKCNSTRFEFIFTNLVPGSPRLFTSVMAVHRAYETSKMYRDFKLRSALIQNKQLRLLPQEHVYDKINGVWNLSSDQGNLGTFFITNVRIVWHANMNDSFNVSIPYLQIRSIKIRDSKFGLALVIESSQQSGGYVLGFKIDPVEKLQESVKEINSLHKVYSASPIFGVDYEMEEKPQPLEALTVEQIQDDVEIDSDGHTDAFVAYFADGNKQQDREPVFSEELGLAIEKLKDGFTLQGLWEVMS
T1 sequence (Q8TAM2 with tags, fused parts or gaps isoform Q8TAM2-4 DEL39-48, further chain): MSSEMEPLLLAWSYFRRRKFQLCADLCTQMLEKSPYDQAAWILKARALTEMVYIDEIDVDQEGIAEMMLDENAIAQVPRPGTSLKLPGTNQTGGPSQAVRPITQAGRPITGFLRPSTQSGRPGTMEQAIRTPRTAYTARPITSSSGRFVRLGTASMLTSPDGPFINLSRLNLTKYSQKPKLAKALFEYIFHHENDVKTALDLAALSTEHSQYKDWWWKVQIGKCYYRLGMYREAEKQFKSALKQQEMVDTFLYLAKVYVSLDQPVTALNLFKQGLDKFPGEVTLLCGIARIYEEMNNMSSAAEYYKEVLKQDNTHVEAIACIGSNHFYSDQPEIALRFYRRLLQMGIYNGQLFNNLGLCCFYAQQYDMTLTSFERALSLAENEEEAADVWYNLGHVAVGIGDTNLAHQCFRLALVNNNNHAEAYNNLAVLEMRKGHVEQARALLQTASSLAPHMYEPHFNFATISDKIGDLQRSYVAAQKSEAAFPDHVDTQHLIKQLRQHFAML
T1 sequence (Q3SYG4 whole entry, stated change not applied, further chain): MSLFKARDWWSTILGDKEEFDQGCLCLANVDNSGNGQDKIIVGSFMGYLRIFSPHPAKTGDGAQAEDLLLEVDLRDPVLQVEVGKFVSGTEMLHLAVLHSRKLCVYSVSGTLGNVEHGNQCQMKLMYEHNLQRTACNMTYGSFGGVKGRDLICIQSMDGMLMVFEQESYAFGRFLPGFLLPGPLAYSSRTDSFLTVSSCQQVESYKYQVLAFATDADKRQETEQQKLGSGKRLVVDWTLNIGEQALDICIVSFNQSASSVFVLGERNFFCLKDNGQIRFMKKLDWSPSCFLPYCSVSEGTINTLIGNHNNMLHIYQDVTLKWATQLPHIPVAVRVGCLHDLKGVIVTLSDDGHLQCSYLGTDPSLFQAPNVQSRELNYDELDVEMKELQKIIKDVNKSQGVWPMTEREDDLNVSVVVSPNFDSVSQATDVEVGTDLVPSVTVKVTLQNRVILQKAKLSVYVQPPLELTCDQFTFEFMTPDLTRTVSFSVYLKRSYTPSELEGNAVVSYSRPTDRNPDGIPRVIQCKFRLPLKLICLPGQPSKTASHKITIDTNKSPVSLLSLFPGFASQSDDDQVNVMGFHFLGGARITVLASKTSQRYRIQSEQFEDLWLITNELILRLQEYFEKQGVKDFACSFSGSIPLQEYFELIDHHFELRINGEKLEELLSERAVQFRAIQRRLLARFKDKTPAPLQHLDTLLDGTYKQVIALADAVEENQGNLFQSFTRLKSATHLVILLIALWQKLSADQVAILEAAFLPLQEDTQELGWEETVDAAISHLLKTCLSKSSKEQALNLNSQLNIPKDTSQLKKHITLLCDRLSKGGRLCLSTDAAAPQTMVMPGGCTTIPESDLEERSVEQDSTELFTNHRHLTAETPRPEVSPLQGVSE
T1 sequence (A8MTZ0 whole entry partner): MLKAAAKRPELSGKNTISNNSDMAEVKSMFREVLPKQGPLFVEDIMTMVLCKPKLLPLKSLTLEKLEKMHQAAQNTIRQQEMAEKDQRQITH

Molecule | Kd ([1]; read-out: KD (converted)) [µM] | also measured
CC(C)C[C@H](NC(=O)[C@H](C)NC(=O)[C@H](CCCNC(=N)N)NC(=O)[C@H](CCCCN)NC(=O)[C@H](Cc1ccccc1)NC(=O)[C@H](CC(=O)O)NC(=O)[C@@H](N)CCCNC(=N)N)C(=O)NCC(=O)N[C@@H](CCCNC(=N)N)C(=O)N[C@@H](Cc1ccccc1)C(=O)N[C@@H](CC(C)C)C(=O)N1CCC[C@H]1C(=O)N[C@@H](CS)C(=O)N1CCC[C@H]1C(=O)N[C@@H](CCCNC(=N)N)C(=O)N[C@@H](CS)C(=O)N1CCC[C@H]1C(=O)N[C@@H](CCCNC(=N)N)C(=O)N[C@@H](CCC(=O)O)C(=O)N[C@@H](CCCNC(=N)N)C(=O)O [5HT6 CT] (H-RDFKRALGRFLPCPRCPRER-OH) | 44.2 ± 10.9 | 
FIFRVARVKARKVHCG [GPR161 3ICL] | 6.3 ± 1.5 | 
GFLSAAAAQGAARVLLRPSRRVRS [SSTR3 CT8] | 11 | 
GFLSAAAAQGFRRVLLRPSRRVRS [SSTR3 CT7] | 1 | 
GFLSAAFKQGAARVLLRPSRRVRS [SSTR3 CT6] | 4.5 | 
GFLSAAFKQGFRRVLLRPSRRVRS [SSTR3 CT3] | 1.1 | 
GFLSYRAAQGFRRVLLRPSRRVRS [SSTR3 CT4] | 0.4 | 
GFLSYRFKQGAARVLLRPSRRVRS [SSTR3 CT5] | 1.5 | 
GFLSYRFKQGFRRVLLRPSEEVES [SSTR3 CT9] | 4.7 | 
GFLSYRFKQGFRRVLLRPSRRVRS [SSTR3 CT2] | 0.11 | 
GRGSAAARSRYTCRLQQHDRGRRQ [NMU 3ICL2, N-terminally fluorescein-labeled peptide from the third intracellular loop of NMU-R1] | > 100 | 
LLIGLRLRRERLLLMQEAKGRG [NMU 3ICL1] | 18.1 ± 1.6 | 
NKTVRKELLGMCFGDRYYREPFVQRQR [GPR161 CT1] | 67.4 ± 7.3 | 
RFKQGFRRVLLRPSR [SSTR3 CT1] | 22.1 ± 1.4 | 
RILQRMTSSVAPASQRSIRLRTKRVTRT [MCH 3ICL] | 68.8 ± 11.3 | 
TLLIAARTAARLTGQSDDE [Smo CT7] |  | Kd [1]: 14.3 µM
VKVRSAGRRVWAPSCQRRRRSERRVTRM [SSTR3 3ICL] | 12.8 ± 1.07 | 
VTARTVPGGGFGGRRGSRTLVS [GPR161 CT2, N-terminally fluorescein-labeled peptide from the C-terminal region of GPR161] | > 100 | 
Arl6•GppNHp: Arl6 (residues 17–186, Q73L, C-terminal Strep-tag) with the nucleotide exchanged to GppNHp (protein, left off: Strep-tag, C-terminal, kept, Arl6 (residues 17–186, Q73L, C-terminal Strep-tag) with the nucleotide exchanged to GppNHp) EVHVLCLGLDNSGKTTIINKLKPSNAQSQNILPTIGFSIEKFKSSSLSFTVFDMSGLGRYRNLWEHYYKEGQAIIFVIDSSDRLRMVVAKEELDTLLNHPDIKHRRIPILFFANKMDLRDAVTSVKVSQLLCLENIKDKPWHICASDAIKGEGLQEGVDWLQDQIQTVKT |  | pulldown of core BBSome (result in words) (core BBSome): precipitated the major part of the BBSome; pulldown of core BBSome (result in words) (core BBSome; listed as Arl6•GppNHP): captured most of the BBSome sample
Arl6•GDP: Arl6 (residues 17–186, Q73L, C-terminal Strep-tag) with the nucleotide exchanged to GDP (protein, left off: Strep-tag, C-terminal, kept, Arl6 (residues 17–186, Q73L, C-terminal Strep-tag) with the nucleotide exchanged to GDP) EVHVLCLGLDNSGKTTIINKLKPSNAQSQNILPTIGFSIEKFKSSSLSFTVFDMSGLGRYRNLWEHYYKEGQAIIFVIDSSDRLRMVVAKEELDTLLNHPDIKHRRIPILFFANKMDLRDAVTSVKVSQLLCLENIKDKPWHICASDAIKGEGLQEGVDWLQDQIQTVKT |  | pulldown of core BBSome (result in words) (core BBSome): no detectable affinity; also recorded: no interaction

Continued, in another order:

Kd ([1]; read-out: KD (converted)) [µM] | Molecule | also measured
> 100 | KRIKKSKMIAKAFSK [Smo CT2] | binding to core BBSome (result in words) [1]: only weak interaction
6.8 | KRLGRKKKRRKRKKE [Smo CT8] | 
9.7 | TLLIAARTWCRLTGQSDDE [Smo CT5] | 
12.5 | TLLIWRRTAARLTGQSDDE [Smo CT6] | 
1.8 ± 0.5 | TLLIWRRTWCRLTGQ [Smo CT1] | 
1.1 | TLLIWRRTWCRLTGQSDDE [Smo CT4] | 
1.4 | TLLIWRRTWCRLTGQSDDEPKRIKKSKMIAKAFSKRH [Smo CT3] | 
